Experimental data reported in US7642245B2, “Antibacterial compounds having a (pyrrole carboxamide)-(benzamide)-(imidazole carboxamide) motif” (Oscient Pharmaceuticals Corporation, priority 2002, dated 2010).

What was measured:
[1] = system: M. catarrhalis (ATCC 25238); test: MIC, NCCLS broth microdilution; format: cell-based, Moraxella (now Branhamella) catarrhalis; conditions: H = M. catarrhalis (ATCC 25238)
Description: (§1) In vitro biological activity data were collected for a variety of microorganisms, including Staphylococcus aureus (ATCC 27660, a methicillin resistant strain (MRSA); ATCC 13709, a methicillin sensitive strain (MSSA)), Enterococcus faecalis (ATCC 29212), Bacillus cereus (ATCC 11778), Streptococcus pneumoniae (ATCC 49619), Candida albicans (ATCC 38247), Escherichia coli (ATCC 25922), and Moraxella (now Branhamella) catarrhalis (ATCC 25238).
(§2) The minimal inhibition concentration (MIC) of these compounds was determined using the National Committee for Clinical Laboratory Standards (NCCLS) broth microdilution assay in microtiter plates, as set forth in: (1) the guidelines of the National Committee for Clinical Laboratory Standards (NCCLS) Document M7-A4 (NCCLS, 1997); (2) the guidelines of the National Committee for Clinical Laboratory Standards (NCCLS) Document M11-A4 (NCCLS, 1997); and (3) the guidelines and reference method of the National Committee for Clinical Laboratory Standards (NCCLS) Document M27-T (NCCLS, 1995). For antifungal assays, the method recommended in Murray, P R., 1995 Manual of Clinical Microbiology (ASM Press, Washington, DC.), was employed.

S. pneumoniae ATCC 49619 = test: MIC, NCCLS broth microdilution; format: cell-based, Streptococcus pneumoniae; conditions: E = S. pneumoniae ATCC 49619
Description: as §1, §2

E. coli ATCC 25922 = test: MIC, NCCLS broth microdilution; format: cell-based, Escherichia coli; conditions: G = E. coli ATCC 25922
Description: as §1, §2

S. aureus ATCC 13709 = test: MIC, NCCLS broth microdilution; format: cell-based, Staphylococcus aureus; conditions: A = S. aureus ATCC 13709 (MSSA)
Description: as §1, §2

S. aureus ATCC 27660 = test: MIC, NCCLS broth microdilution; format: cell-based, Staphylococcus aureus; conditions: B = S. aureus ATCC 27660 (MRSA)
Description: as §1, §2

B. cereus ATCC 11778 = test: MIC, NCCLS broth microdilution; format: cell-based, Bacillus cereus; conditions: D = B. cereus ATCC 11778
Description: as §1, §2

E. faecalis ATCC 29212 = test: MIC, NCCLS broth microdilution; format: cell-based, Enterococcus faecalis; conditions: C = E. faecalis ATCC 29212
Description: as §1, §2

C. albicans ATCC 38247 = test: MIC, antifungal assay; format: cell-based, Candida albicans; conditions: F = C. albicans ATCC 38247
Description: as §1, §2

| Compound | Minimum Inhibitory Concentration (MIC) [1] | Minimum Inhibitory Concentration (MIC) (S. pneumoniae ATCC 49619) | Minimum Inhibitory Concentration (MIC) (E. coli ATCC 25922) | Minimum Inhibitory Concentration (MIC) (S. aureus ATCC 13709) | Minimum Inhibitory Concentration (MIC) (S. aureus ATCC 27660) | Minimum Inhibitory Concentration (MIC) (B. cereus ATCC 11778) | Minimum Inhibitory Concentration (MIC) (E. faecalis ATCC 29212) | Minimum Inhibitory Concentration (MIC) (C. albicans ATCC 38247) |
| --- | --- | --- | --- | --- | --- | --- | --- | --- |
| CCN1CCN(CCNC(=O)c2nc(NC(=O)c3ccc(NC(=O)c4cc(NC(=O)c5cc6ccccc6cn5)cn4C)cc3)cn2C)CC1 [Compound A-13] | +++ (MIC ≦ 4 μg/mL) | +++ (MIC ≦ 4 μg/mL) | >32 µg/mL | +++ (MIC ≦ 4 μg/mL) | +++ (MIC ≦ 4 μg/mL) | +++ (MIC ≦ 4 μg/mL) | +++ (MIC ≦ 4 μg/mL) | >32 µg/mL |
| CCCCN1CCN(CCNC(=O)c2nc(NC(=O)c3ccc(NC(=O)c4cc(NC(=O)c5cc6ccccc6cn5)cn4C)cc3)cn2C)CC1 [Compound A-14] | +++ (MIC ≦ 4 μg/mL) | +++ (MIC ≦ 4 μg/mL) | >32 µg/mL | +++ (MIC ≦ 4 μg/mL) | +++ (MIC ≦ 4 μg/mL) | +++ (MIC ≦ 4 μg/mL) | +++ (MIC ≦ 4 μg/mL) | >32 µg/mL |
| CC(C)N1CCN(CCNC(=O)c2nc(NC(=O)c3ccc(NC(=O)c4cc(NC(=O)c5cc6ccccc6cn5)cn4C)cc3)cn2C)CC1 [Compound A-15] | +++ (MIC ≦ 4 μg/mL) | +++ (MIC ≦ 4 μg/mL) | >32 µg/mL | +++ (MIC ≦ 4 μg/mL) | +++ (MIC ≦ 4 μg/mL) | +++ (MIC ≦ 4 μg/mL) | +++ (MIC ≦ 4 μg/mL) | >32 µg/mL |
| Cn1cc(NC(=O)c2cc3ccccc3cn2)cc1C(=O)Nc1ccc(C(=O)Nc2cn(C)c(C(=O)NCCN3CCCC3)n2)cc1 [Compound A-16] | +++ (MIC ≦ 4 μg/mL) | +++ (MIC ≦ 4 μg/mL) | +++ (MIC ≦ 4 μg/mL) | +++ (MIC ≦ 4 μg/mL) | +++ (MIC ≦ 4 μg/mL) | +++ (MIC ≦ 4 μg/mL) | +++ (MIC ≦ 4 μg/mL) | >32 µg/mL |
| Cn1cc(NC(=O)c2cc3ccccc3cn2)cc1C(=O)Nc1ccc(C(=O)Nc2cn(C)c(C(=O)NCCN3CCCCC3)n2)cc1 [Compound A-17] | +++ (MIC ≦ 4 μg/mL) | +++ (MIC ≦ 4 μg/mL) | +++ (MIC ≦ 4 μg/mL) | +++ (MIC ≦ 4 μg/mL) | +++ (MIC ≦ 4 μg/mL) | +++ (MIC ≦ 4 μg/mL) | +++ (MIC ≦ 4 μg/mL) | + (12 ≦ MIC ≦ 32 μg/mL) |
| Cn1cc(NC(=O)c2cc3ccccc3cn2)cc1C(=O)Nc1ccc(C(=O)Nc2cn(C)c(C(=O)NCCN3CCSCC3)n2)cc1 [Compound A-18] | +++ (MIC ≦ 4 μg/mL) | +++ (MIC ≦ 4 μg/mL) | >32 µg/mL | +++ (MIC ≦ 4 μg/mL) | +++ (MIC ≦ 4 μg/mL) | +++ (MIC ≦ 4 μg/mL) | +++ (MIC ≦ 4 μg/mL) | >32 µg/mL |
| Cn1cc(NC(=O)c2cc3ccccc3cn2)cc1C(=O)Nc1ccc(C(=O)Nc2cn(C)c(C(=O)NCCN3CCC(O)CC3)n2)cc1 [Compound A-19] | +++ (MIC ≦ 4 μg/mL) | +++ (MIC ≦ 4 μg/mL) | + (12 ≦ MIC ≦ 32 μg/mL) | +++ (MIC ≦ 4 μg/mL) | +++ (MIC ≦ 4 μg/mL) | +++ (MIC ≦ 4 μg/mL) | +++ (MIC ≦ 4 μg/mL) | >32 µg/mL |
| COC1CCN(CCNC(=O)c2nc(NC(=O)c3ccc(NC(=O)c4cc(NC(=O)c5cc6ccccc6cn5)cn4C)cc3)cn2C)CC1 [Compound A-20] | +++ (MIC ≦ 4 μg/mL) | +++ (MIC ≦ 4 μg/mL) | +++ (MIC ≦ 4 μg/mL) | +++ (MIC ≦ 4 μg/mL) | +++ (MIC ≦ 4 μg/mL) | +++ (MIC ≦ 4 μg/mL) | +++ (MIC ≦ 4 μg/mL) | + (12 ≦ MIC ≦ 32 μg/mL) |
| CCN(CCNC(=O)c1nc(NC(=O)c2ccc(NC(=O)c3cc(NC(=O)c4cc5ccccc5cn4)cn3C)cc2)cn1C)CCOC [Compound A-21] | +++ (MIC ≦ 4 μg/mL) | +++ (MIC ≦ 4 μg/mL) | >32 µg/mL | +++ (MIC ≦ 4 μg/mL) | +++ (MIC ≦ 4 μg/mL) | +++ (MIC ≦ 4 μg/mL) | +++ (MIC ≦ 4 μg/mL) | >32 µg/mL |
| COCCN(CCNC(=O)c1nc(NC(=O)c2ccc(NC(=O)c3cc(NC(=O)c4cc5ccccc5cn4)cn3C)cc2)cn1C)CCOC [Compound A-22] | +++ (MIC ≦ 4 μg/mL) | +++ (MIC ≦ 4 μg/mL) | >32 µg/mL | +++ (MIC ≦ 4 μg/mL) | +++ (MIC ≦ 4 μg/mL) | +++ (MIC ≦ 4 μg/mL) | +++ (MIC ≦ 4 μg/mL) | >32 µg/mL |
| Cn1cc(NC(=O)c2cc3ccccc3cn2)cc1C(=O)Nc1ccc(C(=O)Nc2cn(C)c(C(=O)NCCNc3ccccn3)n2)cc1 [Compound A-23] | +++ (MIC ≦ 4 μg/mL) | +++ (MIC ≦ 4 μg/mL) | >32 µg/mL | +++ (MIC ≦ 4 μg/mL) | +++ (MIC ≦ 4 μg/mL) | +++ (MIC ≦ 4 μg/mL) | +++ (MIC ≦ 4 μg/mL) | >32 µg/mL |
| Cn1cc(NC(=O)c2cc3ccccc3cn2)cc1C(=O)Nc1ccc(C(=O)Nc2cn(C)c(C(=O)NCCN3CCCCCC3)n2)cc1 [Compound A-24] | +++ (MIC ≦ 4 μg/mL) | +++ (MIC ≦ 4 μg/mL) | >32 µg/mL | +++ (MIC ≦ 4 μg/mL) | +++ (MIC ≦ 4 μg/mL) | +++ (MIC ≦ 4 μg/mL) | +++ (MIC ≦ 4 μg/mL) | ++ (4 < MIC < 12 μg/mL) |
| CCN(CC)CCNC(=O)c1nc(NC(=O)c2ccc(NC(=O)c3cc(NC(=O)c4cc5ccccc5cn4)cn3C)cc2)cn1C [Compound A-25] | +++ (MIC ≦ 4 μg/mL) | +++ (MIC ≦ 4 μg/mL) | >32 µg/mL | +++ (MIC ≦ 4 μg/mL) | +++ (MIC ≦ 4 μg/mL) | +++ (MIC ≦ 4 μg/mL) | +++ (MIC ≦ 4 μg/mL) | >32 µg/mL |
| Cn1cc(NC(=O)c2cc3ccccc3cn2)cc1C(=O)Nc1ccc(C(=O)Nc2cn(C)c(C(=O)NCCNCCN3CCOCC3)n2)cc1 [Compound A-26] | >32 µg/mL | +++ (MIC ≦ 4 μg/mL) | >32 µg/mL | +++ (MIC ≦ 4 μg/mL) | +++ (MIC ≦ 4 μg/mL) | +++ (MIC ≦ 4 μg/mL) | +++ (MIC ≦ 4 μg/mL) | >32 µg/mL |
| Cn1cc(NC(=O)c2cc3ccccc3cn2)cc1C(=O)Nc1ccc(C(=O)Nc2cn(C)c(C(=O)NCCN3CCN(CCO)CC3)n2)cc1 [Compound A-27] | +++ (MIC ≦ 4 μg/mL) | +++ (MIC ≦ 4 μg/mL) | >32 µg/mL | +++ (MIC ≦ 4 μg/mL) | +++ (MIC ≦ 4 μg/mL) | +++ (MIC ≦ 4 μg/mL) | +++ (MIC ≦ 4 μg/mL) | >32 µg/mL |
